Laboratory results published in the supplement of paper PMC12613149.

Assays:
[1] = collision cross section (TIMS, N2 drift gas) of the primary ion; higher = larger gas-phase ion size
[2] = reversed-phase LC retention time (C18, 15 min MeOH gradient); higher = more hydrophobic / later elution
[3] = ionization mode: ESI+, ion species: [M+H]+
[4] = ionization mode: ESI-, ion species: [M-H]-
[5] = ionization mode: ESI+, ion species: [M]+

SMILES | collision cross section [1, 3] | reversed-phase LC retention time [2, 3] | collision cross section [1, 4] | reversed-phase LC retention time [2, 4] | collision cross section [1, 5] | reversed-phase LC retention time [2, 5]
N=C(Nc1ccccc1)Nc1ccccc1 [1,3-Diphenylguanidine] | 150.19 Å² | 8.61 min |  |  |  | 
COCC(=O)Nc1c(I)c(C(=O)NCC(O)CO)c(I)c(C(=O)N(C)CC(O)CO)c1I (stereo unspecified) [Iopromide] | 215.51 Å² | 6.66 min | 212.29 Å² | 6.74 min |  | 
NC(=O)N1c2ccccc2C=Cc2ccccc21 [Carbamazepine] | 150.05 Å² | 12.3 min |  |  |  | 
CCNc1nc(N)nc(Cl)n1 [Atrazine desisopropyl] | 132.48 Å² | 8.1 min |  |  |  | 
C[C@H]1CCCC(=O)CCC/C=C/c2cc(O)cc(O)c2C(=O)O1 [Zearalenone] |  |  | 178.16 Å² | 14.4 min |  | 
CN(C)C(=O)Nc1ccccc1 [Fenuron] | 132.76 Å² | 8.82 min |  |  |  | 
CCCCCCCCCCCCCCCCCCN [1-Octadecylamine] | 184.09 Å² | 18.4 min |  |  |  | 
CN(C)CCC(c1ccc(Cl)cc1)c1ccccn1 (stereo unspecified) [Chlorpheniramine] | 164.13 Å² | 10.8 min |  |  |  | 
CCC[C@H]1CCCCN1 [Coniine] | 129.06 Å² | 6.79 min |  |  |  | 
CN(C)c1nc(=O)n(C2CCCCC2)c(=O)n1C | 163.21 Å² | 11.7 min |  |  |  | 
CC1(C)[C@@H](O[C@H]2O[C@H](C(=O)O)[C@@H](O)[C@H](O)[C@H]2O[C@@H]2O[C@H](C(=O)O)[C@@H](O)[C@H](O)[C@H]2O)CC[C@]2(C)[C@H]3C(=O)C=C4[C@@H]5C[C@@](C)(C(=O)O)CC[C@]5(C)CC[C@@]4(C)[C@]3(C)CC[C@@H]12 [Glycyrrhizic acid] |  |  | 282.7 Å² | 11.8 min |  | 
CC(C1CC1)C(O)(Cn1cncn1)c1ccc(Cl)cc1 (stereo unspecified) [Cyproconazole_1] | 170.22 Å² | 14.4 min |  |  |  | 
CCCCCCCCCCCCCC[N+](C)(C)[O-] [N,N-Dimethyltetradecylamine-N-oxide] | 184.89 Å² | 16.8 min |  |  |  | 
CCCN(CC)CC1COC2(CCC(C(C)(C)C)CC2)O1 (stereo unspecified) [Spiroxamine] | 177.53 Å² | 14.2 min |  |  |  | 
S=c1nc[nH]c2nc[nH]c12 [6-Mercaptopurine] | 126.69 Å² | 2.22 min |  |  |  | 
CCCNCCOc1c(Cl)cc(Cl)cc1Cl | 162.11 Å² | 12.1 min |  |  |  | 
O=C(c1ccccc1)c1ccc(O)cc1O [2,4-Dihydroxybenzophenone] |  |  | 146.26 Å² | 11.7 min |  | 
CC(C)COC(=O)c1ccccc1C(=O)O [Mono-iso-butyl-phthalate] |  |  | 151.15 Å² | 10.2 min |  | 
O=C(c1ccccc1)c1ccc(O)cc1 [4-Hydroxybenzophenone] |  |  | 144.47 Å² | 12 min |  | 
CCCCCOC(=O)c1ccccc1C(=O)OCCCCC [Di-n-pentylphthalate] | 182.77 Å² | 17.4 min |  |  |  | 

SMILES | collision cross section [1, 3] | reversed-phase LC retention time [2, 3] | collision cross section [1, 4] | reversed-phase LC retention time [2, 4] | collision cross section [1, 5] | reversed-phase LC retention time [2, 5]
COC(=O)[C@H](C)N(C(=O)Cc1ccccc1)c1c(C)cccc1C [Benalaxyl] | 173.08 Å² | 15.6 min |  |  |  | 
COCC(C)N(C(=O)CS(=O)(=O)O)c1c(C)csc1C (stereo unspecified) [Dimethenamid ESA] | 166.05 Å² | 10.9 min | 168.76 Å² | 10.9 min |  | 
CSC1=N[C@@](C)(c2ccccc2)C(=O)N1Nc1ccccc1 [Fenamidone] | 173.13 Å² | 14.1 min |  |  |  | 
CCCCCCCCCCCCCCN(C)C [N,N-Dimethyltetradecylamine] | 179.2 Å² | 16.6 min |  |  |  | 
Cn1c(N)nc2ncc(-c3ccccc3)cc21 [2-Amino-1-methyl-6-phenylimidazo[4,5-b]pyridine (PhIP)] | 152.56 Å² | 9.5 min | 152.05 Å² | 12.1 min |  | 
CC(C)(C)c1cc(CCC(=O)NCCCCCCNC(=O)CCc2cc(C(C)(C)C)c(O)c(C(C)(C)C)c2)cc(C(C)(C)C)c1O | 263.68 Å² | 17.8 min | 254.68 Å² | 18.3 min |  | 
CCC(=O)O[C@]1(C(=O)SCF)[C@H](C)C[C@H]2[C@@H]3C[C@H](F)C4=CC(=O)C=C[C@]4(C)[C@@]3(F)[C@@H](O)C[C@@]21C [Fluticasone propionate] | 212.76 Å² | 15.2 min | 209.59 Å² | 15.7 min |  | 
C[C@H](CCC(=O)O)[C@H]1CC[C@H]2[C@@H]3[C@H](O)C[C@@H]4C[C@H](O)CC[C@]4(C)[C@H]3C[C@H](O)[C@]12C [Cholic acid] |  |  | 203.99 Å² | 14.7 min |  | 
CCCSP(=O)(OCC)Oc1ccc(Br)cc1Cl (stereo unspecified) [Profenofos] | 169.17 Å² | 16.6 min |  |  |  | 
CCC(C(N)=O)(C(N)=O)c1ccccc1 [Phenylethylmalonamide] | 142.07 Å² | 7.73 min |  |  |  | 
Cc1ccc(N)cc1Cl [3-Chloro-4-methylaniline] | 148.73 Å² | 12.2 min |  |  |  | 
COC(=O)c1cc(C(=O)OC)cc(S(=O)(=O)O)c1 [Dimethyl-5-sulfoisophthalate] |  |  | 162.37 Å² | 8.33 min |  | 
CCCCCCCCCCCCCC[N+](C)(C)Cc1ccccc1 [Benzyldimethyltetradecylammonium] |  |  |  |  | 204.79 Å² | 17 min
CCCCOC(=O)c1ccccc1C(=O)OCCCC [Dibutylphthalate] | 169.98 Å² | 16.4 min |  |  |  | 
O=C(O)C(F)(F)C(F)(F)C(F)(F)C(F)(F)C(F)(F)C(F)(F)C(F)(F)C(F)(F)C(F)(F)C(F)(F)C(F)(F)C(F)(F)C(F)(F)F [Perfluorotetradecanoic acid] |  |  | 209.23 Å² | 17.6 min |  | 
CN(C)C(=O)Nc1ccc(Oc2ccc(Cl)cc2)cc1 [Chloroxuron] | 175 Å² | 14.6 min |  |  |  | 
O=P(O)(O)C(F)(F)C(F)(F)C(F)(F)C(F)(F)C(F)(F)C(F)(F)F [Perfluorohexyl phosphonic acid] |  |  | 152.3 Å² | 10.5 min |  | 
CN1C(=O)CN=C(c2ccccc2)c2cc(Cl)ccc21 [Diazepam] | 165.95 Å² | 14.2 min |  |  |  | 
CC#Cc1cc(C)nc(Nc2ccccc2)n1 [Mepanipyrim] | 152.51 Å² | 14.6 min |  |  |  | 

Other lines, results leading:

collision cross section [1, 3] | reversed-phase LC retention time [2, 3] | collision cross section [1, 4] | reversed-phase LC retention time [2, 4] | collision cross section [1, 5] | reversed-phase LC retention time [2, 5] | SMILES
157.6 Å² | 6.24 min |  |  |  |  | CC(C)NCC(O)COc1ccc(CC(N)=O)cc1 (stereo unspecified) [Atenolol]
155.68 Å² | 17.1 min |  |  |  |  | CC(C)c1ccc2sc3ccccc3c(=O)c2c1 [2-Isopropylthioxanthone]
163.66 Å² | 7.95 min | 165.06 Å² | 7.46 min |  |  | Cc1cc(C)nc(NS(=O)(=O)c2ccc(N)cc2)n1 [Sulfamethazine]
154.67 Å² | 8.35 min |  |  |  |  | Cn1cnc2c1c(=O)n(CCCC(=O)O)c(=O)n2C [1-(3-carboxypropyl)-3,7-dimethylxanthine]
154.65 Å² | 14.1 min | 156.4 Å² | 12.8 min |  |  | O=c1cc(-c2ccccc2)oc2cc(O)cc(O)c12 [Chrysin]
205.9 Å² | 10.4 min |  |  |  |  | Cc1nc2n(c(=O)c1CCN1CCC(c3noc4cc(F)ccc34)CC1)CCCC2 [Risperidone]
220.81 Å² | 15.7 min | 216.67 Å² | 16.2 min |  |  | CCC(=O)OCC(=O)C1(OC(=O)CC)C(C)CC2C3CCC4=CC(=O)C=CC4(C)C3(F)C(O)CC21C (stereo unspecified) [Betamethasone dipropionate]
173.06 Å² | 15.4 min | 169.52 Å² | 13.2 min |  |  | Nc1ccc(Oc2ccc(Cl)cc2Cl)cc1C(=O)O [Aminobifenox acid]
154.45 Å² | 16.3 min | 159.71 Å² | 13.6 min |  |  | Cc1cccc(Nc2ccccc2C(=O)O)c1C [Mefenamic acid]
221.42 Å² | 21.2 min |  |  |  |  | CCCCCCOc1ccc(-c2nc(-c3ccccc3)nc(-c3ccccc3)n2)c(O)c1 [2-(4,6-Diphenyl-1,3,5-triazine-2-yl)-5-(hexyloxy)-phenol]
 |  | 136.84 Å² | 7.68 min |  |  | Cc1ccc(S(=O)(=O)O)c(C)c1 [m-Xylene-4-sulfonic acid]
176.08 Å² | 14.4 min |  |  |  |  | O=C(NCc1ncc(C(F)(F)F)cc1Cl)c1c(Cl)cccc1Cl [Fluopicolide]
152.87 Å² | 13.6 min |  |  |  |  | CCC(C)OC(=O)N1CCCCC1CCO (stereo unspecified) [Icaridin]
142.86 Å² | 13 min |  |  |  |  | CCN(CC)C(=O)c1cccc(C)c1 [DEET]
162.42 Å² | 10.3 min |  |  |  |  | C[C@@H](O)CCCCn1c(=O)c2c(ncn2C)n(C)c1=O [Lisofylline]
 |  | 162.14 Å² | 8.92 min |  |  | Cc1cccc(C)c1N(Cn1cccn1)C(=O)C(=O)O [Metazachlor OA]
152.91 Å² | 11.7 min | 166.14 Å² | 9.17 min |  |  | CC1CCc2cc(F)cc3c(=O)c(C(=O)O)cn1c23 (stereo unspecified) [Flumequine]
141.34 Å² | 7.62 min | 139.34 Å² | 7.26 min |  |  | O=S(=O)(O)c1nc2ccccc2s1 [2-Benzothiazolesulfonic acid]
231.31 Å² | 14.8 min |  |  |  |  | COc1ccccc1Oc1c(NS(=O)(=O)c2ccc(C(C)(C)C)cc2)nc(-c2ncccn2)nc1OCCO [Bosentan]
177.62 Å² | 13.9 min |  |  |  |  | C#C[C@]1(O)CC[C@H]2[C@@H]3CCC4=CC(=O)CC[C@@H]4[C@H]3CC[C@@]21C [Norethindrone]
139.49 Å² | 10.8 min |  |  |  |  | CN(C)C(=O)NC1CCCCC1 [3-Cyclohexyl-1,1-dimethylurea]
159 Å² | 7.36 min |  |  |  |  | CC(C)NCC(O)COc1cccc2[nH]ccc12 (stereo unspecified) [Pindolol]
